Laboratory results reported in patent US7371766B2, “Curcumin analogs with anti-tumor and anti-angiogenic properties” (Emory University, priority 1999, dated 2008).
Read-outs that look alike come from different tables or passages of the source.

Columns and labels:
CCRF-CEM = experiment: cells; conditions: Homo sapiens, 48 h; for GI50: read-out: Median Growth Inhibitory Concentration (GI50); for CC50: read-out: Median Lethal Concentration (LC50)
OVCAR-5 = experiment: cells; conditions: Homo sapiens, OVCAR-5, 48 h; for GI50: read-out: Median Growth Inhibitory Concentration (GI50); for CC50: read-out: Median Lethal Concentration (LC50)
SF-295 [1] = experiment: cells; conditions: Homo sapiens, SF-295, 48 h; for GI50: read-out: Median Growth Inhibitory Concentration (GI50); for CC50: read-out: Median Lethal Concentration (LC50)
EKVX = experiment: cells; conditions: Homo sapiens, 48 h; for GI50: read-out: Median Growth Inhibitory Concentration (GI50); for CC50: read-out: Median Lethal Concentration (LC50)
MOLT-4 = conditions: 48 hours; for GI50: read-out: Median Growth Inhibitory Concentration (GI50), MOLT-4, Leukemia
DU-145 = conditions: 48 hours; for GI50: read-out: Median Growth Inhibitory Concentration (GI50), DU-145, Prostate Cancer
786-0 = conditions: 48 hours; for GI50: read-out: Median Growth Inhibitory Concentration (GI50), 786-0, Renal Cancer
COLO 205 = conditions: 48 hours; for GI50: read-out: Median Growth Inhibitory Concentration (GI50), COLO 205, Colon Cancer
PC-3 = conditions: 48 hours; for GI50: read-out: Median Growth Inhibitory Concentration (GI50), PC-3, Prostate Cancer
SF-295 [2] = conditions: 48 hours; for GI50: read-out: Median Growth Inhibitory Concentration (GI50), SF-295, CNS Cancer
K-562 = conditions: 48 hours; for GI50: read-out: Median Growth Inhibitory Concentration (GI50), K-562, Leukemia
NCI-H226 = conditions: 48 hours; for GI50: read-out: Median Growth Inhibitory Concentration (GI50), NCI-H226, Non-Small Cell Lung Cancer
LOX IMVI = conditions: for GI50: read-out: Median Growth Inhibitory Concentration (GI50), Melanoma, 48 hours
SN12C = conditions: for GI50: read-out: Median Growth Inhibitory Concentration (GI50), Renal Cancer, 48 hours
HCT-116 = conditions: 48 hours; for GI50: read-out: Median Growth Inhibitory Concentration (GI50), HCT-116, Colon Cancer
MDA-MB-435 = conditions: 48 hours; for GI50: read-out: Median Growth Inhibitory Concentration (GI50), MDA-MB-435, Breast Cancer
HT29 = conditions: 48 hours; for GI50: read-out: Median Growth Inhibitory Concentration (GI50), HT29, Colon Cancer
HL-60 (TB) = conditions: for GI50: read-out: Median Growth Inhibitory Concentration (GI50), Leukemia, 48 hours
SK-MEL-2 = conditions: 48 hours; for GI50: read-out: Median Growth Inhibitory Concentration (GI50), SK-MEL-2, Melanoma
U251 = conditions: 48 hours; for GI50: read-out: Median Growth Inhibitory Concentration (GI50), U251, CNS Cancer
MCF-7 = conditions: 48 hours; for GI50: read-out: Median Growth Inhibitory Concentration (GI50), MCF-7, Breast Cancer
RPMI-8226 = conditions: 48 hours; for GI50: read-out: Median Growth Inhibitory Concentration (GI50), RPMI-8226, Leukemia
CAKI-1 = conditions: 48 hours; for GI50: read-out: Median Growth Inhibitory Concentration (GI50), CAKI-1, Renal Cancer
HOP-62 = conditions: 48 hours; for GI50: read-out: Median Growth Inhibitory Concentration (GI50), HOP-62, Non-Small Cell Lung Cancer
A549 = conditions: 48 hours; for GI50: read-out: Median Growth Inhibitory Concentration (GI50), A549, Non-Small Cell Lung Cancer
HOP-92 = conditions: 48 hours; for GI50: read-out: Median Growth Inhibitory Concentration (GI50), HOP-92, Non-Small Cell Lung Cancer
SK-MEL-28 = conditions: 48 hours; for GI50: read-out: Median Growth Inhibitory Concentration (GI50), SK-MEL-28, Melanoma
HS 578T = conditions: for GI50: read-out: Median Growth Inhibitory Concentration (GI50), Breast Cancer, 48 hours
TK-10 = conditions: 48 hours; for GI50: read-out: Median Growth Inhibitory Concentration (GI50), TK-10, Renal Cancer
RXF 393 = conditions: 48 hours; for GI50: read-out: Median Growth Inhibitory Concentration (GI50), RXF 393, Renal Cancer
NCI-H522 = conditions: 48 hours; for GI50: read-out: Median Growth Inhibitory Concentration (GI50), NCI-H522, Non-Small Cell Lung Cancer

Structure (SMILES): OC(CCc1ccc(F)cc1F)CCc1ccc(F)cc1F [EF19, 1,5-Bis(2,4-difluorophenyl)-pentan-3-ol]
- GI50 (CCRF-CEM): 18.2 µM
- CC50 (CCRF-CEM): 72.3 µM
- GI50 (OVCAR-5): 18.5 µM
- CC50 (OVCAR-5): 61.1 µM
- GI50 (SF-295 [1]): 18.7 µM
- CC50 (SF-295 [1]): 69.7 µM
- GI50 (EKVX): 17.5 µM
- CC50 (EKVX): 57.7 µM

Structure (SMILES): CC1(/C=C/c2ccccc2O)C=Cc2ccccc2O1 (stereo not shown) [EF7]
- GI50 (CCRF-CEM): 12.5 µM
- CC50 (CCRF-CEM): 79.5 µM
- GI50 (OVCAR-5): 16.7 µM
- CC50 (OVCAR-5): 58.4 µM
- GI50 (SF-295 [1]): 15.5 µM
- CC50 (SF-295 [1]): 55.1 µM
- GI50 (EKVX): 17.3 µM
- CC50 (EKVX): 56.6 µM

Structure (SMILES): C(=C\c1ccccc1)/S/C=C/c1ccccc1 [EF15]
- GI50 (MOLT-4): > 100 µM
- GI50 (DU-145): > 100 µM
- GI50 (786-0): > 100 µM
- GI50 (COLO 205): > 100 µM
- GI50 (PC-3): > 100 µM
- GI50 (SF-295 [2]): 80.9 µM
- GI50 (K-562): 78.5 µM
- GI50 (NCI-H226): > 100 µM
- GI50 (LOX IMVI): > 100 µM
- GI50 (SN12C): > 100 µM
- GI50 (HCT-116): > 100 µM
- GI50 (MDA-MB-435): 61.2 µM
- GI50 (HT29): 46.1 µM
- GI50 (HL-60 (TB)): 49.9 µM
- GI50 (SK-MEL-2): 31.7 µM
- GI50 (U251): 95.1 µM
- GI50 (MCF-7): 44.6 µM
- GI50 (RPMI-8226): 49.8 µM
- GI50 (CAKI-1): > 100 µM
- GI50 (HOP-62): > 100 µM
- GI50 (A549): > 100 µM
- GI50 (HOP-92): > 100 µM
- GI50 (SK-MEL-28): 83.7 µM
- GI50 (HS 578T): > 100 µM
- GI50 (TK-10): > 100 µM
- GI50 (RXF 393): 23.5 µM
- GI50 (NCI-H522): 69.9 µM

Structure (SMILES): O=C1C(=Cc2ccccc2O)COCC1=Cc1ccccc1O [EF25, 3,5-Bis(2-hyrdoxybenzylidene)tetrahydro4-H-pyran4-one]
- GI50 (MOLT-4): 0.4 µM
- CC50 (MOLT-4; read-out: Median Lethal Concentration (LC50), Leukemia, MOLT-4, SRB assay): > 100 µM
- GI50 (DU-145): 1.2 µM
- CC50 (DU-145; read-out: Median Lethal Concentration (LC50), Prostate Cancer, DU-145, SRB assay): 20.1 µM
- GI50 (786-0): 0.4 µM
- CC50 (786-0; read-out: Median Lethal Concentration (LC50), Renal Cancer, 786-O, SRB assay): 32.6 µM
- GI50 (COLO 205): 2 µM
- CC50 (COLO 205; read-out: Median Lethal Concentration (LC50), Colon Cancer, COLO 205, SRB assay): 33.4 µM
- GI50 (PC-3): 0.5 µM
- CC50 (PC-3; read-out: Median Lethal Concentration (LC50), Prostate Cancer, PC-3, SRB assay): 24.8 µM
- GI50 (SF-295 [2]): 1.7 µM
- CC50 (SF-295 [2]; read-out: Median Lethal Concentration (LC50), CNS Cancer, SF-295, SRB assay): 35 µM
- GI50 (K-562): 0.6 µM
- CC50 (K-562; read-out: Median Lethal Concentration (LC50), Leukemia, K-562, SRB assay): 91.8 µM
- GI50 (NCI-H226): 2.2 µM
- CC50 (NCI-H226; read-out: Median Lethal Concentration (LC50), Non-Small Cell Lung Cancer, NCI-H226, SRB assay): 58 µM
- GI50 (LOX IMVI): 0.2 µM
- CC50 (LOX IMVI; read-out: Median Lethal Concentration (LC50), Melanoma, 48 hours, SRB assay): 3.6 µM
- GI50 (SN12C): 1.4 µM
- CC50 (SN12C; read-out: Median Lethal Concentration (LC50), Renal Cancer, 48 hours, SRB assay): 12 µM
- GI50 (HCT-116): 0.8 µM
- CC50 (HCT-116; read-out: Median Lethal Concentration (LC50), Colon Cancer, HCT-116, SRB assay): 11.1 µM
- GI50 (MDA-MB-435): 1 µM
- CC50 (MDA-MB-435; read-out: Median Lethal Concentration (LC50), Breast Cancer, MDA-MB-435, SRB assay): 16.3 µM
- GI50 (HT29): 2 µM
- CC50 (HT29; read-out: Median Lethal Concentration (LC50), Colon Cancer, HT29, SRB assay): 67.5 µM
- GI50 (HL-60 (TB)): 1.1 µM
- CC50 (HL-60 (TB); read-out: Median Lethal Concentration (LC50), Leukemia, 48 hours, SRB assay): > 100 µM
- GI50 (SK-MEL-2): 2 µM
- CC50 (SK-MEL-2; read-out: Median Lethal Concentration (LC50), Melanoma, SK-MEL-2, SRB assay): 12.6 µM
- GI50 (U251): 0.7 µM
- CC50 (U251; read-out: Median Lethal Concentration (LC50), CNS Cancer, U251, SRB assay): 5.8 µM
- GI50 (MCF-7): 0.3 µM
- CC50 (MCF-7; read-out: Median Lethal Concentration (LC50), Breast Cancer, MCF-7, SRB assay): 44.7 µM
- GI50 (RPMI-8226): 0.2 µM
- CC50 (RPMI-8226; read-out: Median Lethal Concentration (LC50), Leukemia, RPMI-8226, SRB assay): 70.9 µM
- GI50 (CAKI-1): 1.8 µM
- CC50 (CAKI-1; read-out: Median Lethal Concentration (LC50), Renal Cancer, CAKI-1, SRB assay): 53.7 µM
- GI50 (HOP-62): 1.5 µM
- CC50 (HOP-62; read-out: Median Lethal Concentration (LC50), Non-Small Cell Lung Cancer, HOP-62, SRB assay): 37.2 µM
- GI50 (A549): 2.5 µM
- CC50 (A549; read-out: Median Lethal Concentration (LC50), Non-Small Cell Lung Cancer, A549, SRB assay): 71.8 µM
- GI50 (HOP-92): 2.4 µM
- CC50 (HOP-92; read-out: Median Lethal Concentration (LC50), Non-Small Cell Lung Cancer, HOP-92, SRB assay): 35.4 µM
- GI50 (SK-MEL-28): 2.4 µM
- CC50 (SK-MEL-28; read-out: Median Lethal Concentration (LC50), Melanoma, SK-MEL-28, SRB assay): 6.6 µM
- GI50 (HS 578T): 5.1 µM
- CC50 (HS 578T; read-out: Median Lethal Concentration (LC50), Breast Cancer, 48 hours, SRB assay): 72.3 µM
- GI50 (TK-10): 2.2 µM
- CC50 (TK-10; read-out: Median Lethal Concentration (LC50), Renal Cancer, TK-10, SRB assay): 24.6 µM
- GI50 (RXF 393): 0.6 µM
- CC50 (RXF 393; read-out: Median Lethal Concentration (LC50), Renal Cancer, RXF 393, SRB assay): 4.6 µM
- GI50 (NCI-H522): 0.9 µM
- CC50 (NCI-H522; read-out: Median Lethal Concentration (LC50), Non-Small Cell Lung Cancer, NCI-H522, SRB assay): 14.1 µM
